Measurements from US9078890B2, “Use of koumine and its homologues in preparation of medicament for treatment of autoimmune diseases of involved bones and joints” (priority 2011, dated 2015).
Marks after values point to notes of the source that are not given here.

Experiments:
adjuvant arthritis mice = assay: Adjuvant arthritis mice: hyperalgesia (phlogogenic paw thermal withdrawal latency); assay type: in vivo, Kunming mice
Experimental: BCG was inactivated in water bath at 80° C., and fully emulsified along with complete Freund's adjuvant to form complete Freund's adjuvant emulsion containing 5 mg/ml BCG, preserved at 4° C., and shake well before use. The Kunming mice were divided into a modeling group and a false modeling group. According to the method recited in the literature [Rasool M, Sabina E P, Lavanya B. Anti-inflammatory effect of Spirulina fusiformis on adjuvant-induced arthritis in mice. Biol Pharm Bull. 2006, 29(12):2483-7], for the modeling group, the model was prepared by intradermal injection of 20 ul the emulsion under the plantar surface of right paws after the mice was narcotized; for the false modeling group, the emulsion was replaced with physiological saline. For the modeling group, the animals were screened on Day 8 after injection: the mice with the injected paw thickness increased >0.5 mm and thermal hyperalgesia occurred (paw thermal withdrawal latency <8 second) were selected as experimental subjects. The selected mice were divided into 5 groups randomly: low, middle, high dose treatment group (0.8, 4, 20 mg/kg); indomethacin positive control group (10 mg/kg); negative control group (physiological saline), each comprising 12 animals. Day 8 after inflammation, intragastric administration was carried out on each group to give corresponding intervention, one time per day for 10 days continuously.
30 min after intragastric administration, the phlogogenic paw thermal withdrawal latency of the mice in each group was determined by photo-thermal dolorimeter to reflect animals' hyperalgesia status.

[1] = system: type II collagen-induced arthritis rat; assay: Type II collagen-induced arthritis rat: condition and body weight; assay type: in vivo, Wistar rat
Experimental: (§1) Under aseptic conditions, 10 mg chicken type II collagen protein was fully mixed with 5 ml 10 mM glacial acetic acid solution, and stirred overnight in refrigerator at 4° C. to fully dissolve it. It was mixed with complete Freund's adjuvant in equal volume in ice bath to fully emulsify into an emulsion with a collagen concentration of 1 mg/ml.
(§2) Wistar rats are divided into a modeling group and a false modeling group. After the modeling group rats were narcotized with intraperitoneal injection of pentobarbital, the above emulsion was injected intracutaneously at 3 to 4 positions at back, tail root or the like, 0.3 ml for each, an primary immunity was carried out. After 7 days, a secondary immunity was carried out, the emulsifying agent complete Freund's adjuvant of initial immunity was replaced with incomplete Freund's adjuvant, 0.1 ml the emulsion was injected under sevoflurane inhalation anesthesia wherein the injection position is different from the last time. In false modeling group, the emulsion was replaced with solvent glacial acetic acid solution.
(§3) Successfully modeled rat in the modeling group were randomly divide into 5 groups: low, middle, high-dose koumine treatment group, positive control group, negative control group, 10 rats for each group. Beginning from Day 21 after modeling, corresponding intervention was carried out as following in 10 days continuously: 0.6, 3, 15 mg/kg koumine were intragastrically administrated to the low, middle, high-dose koumine treatment group respectively, 1 time every day; 1 mg/kg amethopterin was administrated to the positive control group, 1 time every 3 days, equal volume of physiological saline was administrated for the remained days; equal volume of physiological saline was administrated to the negative control group.

[2] = system: type II collagen-induced arthritis rat; assay: Type II collagen-induced arthritis rat: thermal hyperalgesia (thermal withdrawal latency); assay type: in vivo, Wistar rat; settings: amethopterin 1 mg/kg once every 3 days
Experimental: as §1, §2, §3
1 hour after intragastric administration, the thermal withdrawal latency of each group was determined by the photo-thermal dolorimeter; the mechanical pain threshold of rats of each group was determined by Von-frey electromechanical pain threshold detector, thus the condition of thermal hyperalgesia and mechanical hyperalgesia of rats of each group was observed.

| Structure (SMILES) | Thermal stimulus withdrawal latency, Before intervention (adjuvant arthritis mice; indomethacin 10 mg/kg intragastric once daily for 10 days from Day 8 after inflammation, before intervention) | Thermal stimulus withdrawal latency, Intervention Day 4 (adjuvant arthritis mice; indomethacin 10 mg/kg intragastric once daily from Day 8, Day 4) | Thermal stimulus withdrawal latency, Intervention Day 8 (adjuvant arthritis mice; indomethacin 10 mg/kg intragastric once daily from Day 8, Day 8) | Thermal stimulus withdrawal latency, Intervention Day 12 (adjuvant arthritis mice; indomethacin 10 mg/kg intragastric once daily from Day 8, Day 12) | Thermal stimulus withdrawal latency, Intervention Day 16 (adjuvant arthritis mice; indomethacin 10 mg/kg intragastric once daily from Day 8, Day 16) | Thermal stimulus withdrawal latency, Intervention Day 18 (adjuvant arthritis mice; indomethacin 10 mg/kg intragastric once daily from Day 8, Day 18) | Body weight after intervention, Day 7 ([1]; amethopterin 1 mg/kg once every 3 days from Day 21, Day 7) | Body weight after intervention, Day 14 ([1]; amethopterin 1 mg/kg once every 3 days from Day 21, Day 14) | Body weight after intervention, Day 21 ([1]; amethopterin 1 mg/kg once every 3 days from Day 21, Day 21) | Body weight after intervention, Day 31 ([1]; amethopterin 1 mg/kg once every 3 days from Day 21, Day 31) | Body weight before intervention ([1]; amethopterin 1 mg/kg once every 3 days, from Day 21 after modeling for 10 days, before intervention) | Thermal stimulus withdrawal latency, Before intervention ([2]; before intervention) | Thermal stimulus withdrawal latency, Intervention Day 2 ([2]; intervention Day 2) | Thermal stimulus withdrawal latency, Intervention Day 4 ([2]; intervention Day 4) | Thermal stimulus withdrawal latency, Intervention Day 6 ([2]; intervention Day 6) | Thermal stimulus withdrawal latency, Intervention Day 8 ([2]; intervention Day 8) | Thermal stimulus withdrawal latency, Intervention Day 10 ([2]; intervention Day 10) |
| --- | --- | --- | --- | --- | --- | --- | --- | --- | --- | --- | --- | --- | --- | --- | --- | --- | --- |
| COc1ccc2c(c1)c(CC(=O)O)c(C)n2C(=O)c1ccc(Cl)cc1 [Positive control, Indomethacin, reference compound] | 13.8 ± 1.2 s | 5.9 ± 1.1^★★ second | 4.1 ± 0.8^★★ second | 8.9 ± 0.9**^★ second | 9.8 ± 1.6**^★ second | 10.1 ± 1.2**^★★ second | – | – | – | – | – | – | – | – | – | – | – |
| CN(Cc1cnc2nc(N)nc(N)c2n1)c1ccc(C(=O)N[C@@H](CCC(=O)O)C(=O)O)cc1 [Positive control group, Amethopterin, reference compound] | – | – | – | – | – | – | 154.5 ± 8.36 g | 178.2 ± 5.93 g | 203.1 ± 9.11 g | 227.0 ± 12.68 g | 129.8 ± 6.21 g | 8.05 ± 1.01 s | 8.48 ± 0.73 s | 9.15 ± 0.57**^★★ second | 9.27 ± 1.09**^★ second | 9.50 ± 1.08**^★★ second | 10.31 ± 1.21**^★ second |
